Laboratory results as given in patent US11197828B2, “Solid oral dosage form of lipophilic compounds” (SOLURAL PHARMA APS, priority 2014, dated 2021).
Marks after values point to notes of the source that are not given here.

Key:
[1] = cited from earlier work
[2] = oral 60 mg paclitaxel equivalents/animal, fasted male beagle dogs (N = 4)
Description: (§1) The study was a randomized, balanced, single dose, parallel group study in Beagle dogs comparing pharmacokinetics in fasted state of capsules containing C11-paclitaxel and DHA-paclitaxel, respectively in SEDDS formulation S2 (see Table 1).
(§2) The strength of each capsule was 12.5 mg of paclitaxel equivalents for the C-11 paclitaxel capsule and 10 mg of paclitaxel equivalents for the DHA-paclitaxel. The total oral dosage provided was 75 mg calculated as parent compound for paclitaxel and C11-paclitaxel, respectively and 60 mg calculated as parent compound for DHA-paclitaxel.
(§3) The dogs were deprived of food from late afternoon the day prior dosing. The capsule was put directly on the aditus laryngis of the dog to ensure that the capsule is not chewed but swallowed whole. All dogs received totally 100 ml of water immediately following the dosing.
(§4) Blood samples (approximately ˜0.5 mL) were taken from each animal at each dosing occasion on 10 time points up to 24 hours after dosing including a pre-dose.
(§5) The pharmacokinetic parameters calculated are i.e. total exposure, or area under the concentration-time curve (AUC0-inf, AUC0-t), peak exposure (Cmax), time to peak exposure (Tmax), terminal half-life t1/2 and the conversion rate from prodrug to parent.

in vivo = conditions: male, beagle, dog, blood, po, 75 mg
Description: as §1, §2, §3, §4, §5

[3] = excessive first pass metabolism; cited from earlier work

In the case of `CC(=O)O[C@H]1CC[C@@]2(C)C(=CC[C@@H]3[C@@H]2CC[C@]2(C)C(c4cccnc4)=CC[C@@H]32)C1` [Abiraterone acetate], the “log P” value [1] is listed as 5.1.

In the case of `C[C@@H](O)[C@@H]1NC(=O)[C@H](CCCCN)NC(=O)[C@@H](Cc2c[nH]c3ccccc23)NC(=O)[C@H](Cc2ccccc2)NC(=O)[C@@H](NC(=O)[C@H](N)Cc2ccccc2)CSSC[C@@H](C(=O)N[C@H](CO)[C@@H](C)O)NC1=O` [Octreotide], the “log P” value [1] is listed as “around 1”.

In the case of `CC/C=C\C/C=C\C/C=C\C/C=C\C/C=C\C/C=C\CCC(=O)O[C@@H](C(=O)O[C@H]1C[C@@]2(O)[C@@H](OC(=O)c3ccccc3)[C@@H]3[C@]4(OC(C)=O)CO[C@@H]4C[C@H](O)[C@@]3(C)C(=O)[C@H](OC(C)=O)C(=C1C)C2(C)C)[C@@H](NC(=O)c1ccccc1)c1ccccc1` [Paclitaxel-DHA, paclitaxel docosahexaenoate], the “AUC0-t(parent)/AUC0-t(prodrug)” value ([2]; conversion prodrug to parent) is reported as 22.3%, the “AUC0-t of paclitaxel (parent)” value [2] is reported as 73.3 ng·h/mL and the AUC0-t of prodrug [2] is reported as 402^e) hr * ng/mL. For the same compound, the “AUC0-∞ of paclitaxel (parent)” value [2] was 97.2 ng·h/mL, the “AUC0-∞ of prodrug” value [2] was 643^f) hr * ng/mL and the “Cmax of paclitaxel (parent)” value [2] was 10.4 ng/mL. The Cmax of prodrug [2] was 63.8^d) ng/mL, the “Tmax of paclitaxel (parent)” value [2] was 2.25 h and the Tmax of prodrug [2] was 4.50 h. For the same compound, the “t1/2 of paclitaxel (parent)” value [2] was 11.6 h and the t1/2 of prodrug [2] was 6.33 h.

With `CC(=O)O[C@H]1C(=O)[C@@]2(C)[C@H]([C@H](OC(=O)c3ccccc3)[C@]3(O)C[C@H](OC(=O)[C@H](O)[C@@H](NC(=O)c4ccccc4)c4ccccc4)C(C)=C1C3(C)C)[C@]1(OC(C)=O)CO[C@@H]1C[C@@H]2O` [Paclitaxel] the AUC(0-inf) (in vivo) was 973 ng·h/mL, the AUC(0-t) (in vivo) was 771 ng·h/mL and the Cmax (in vivo) was 148 ng/mL. The Tmax (in vivo) was 2.5 h and the half-life (in vivo) was 13.7 h.

In the case of `CCCCCCCCCCC(=O)O[C@H]1CC[C@H]2[C@@H]3CCC4=CC(=O)CC[C@]4(C)[C@H]3CC[C@]12C` [Testosterone undecanoate], the “log P” value [1] is given as “about 8.7”.

In the case of `CC(C)c1cccc(C(C)C)c1O` [propofol, 2,6-diisopropylphenol], the oral bioavailability [3] is given as ≤ 3%.
